Results reported in patent US10364263B2, “Cyclic phosphates and cyclic phosphoramidates for the treatment of neurologic disorders” (Retrophin, Inc., priority 2015, dated 2019).

What was measured:
[1] = Stability in mouse plasma; type: in vitro ADME
Method: (§1) Compounds and positive control samples were dissolved in 100% DMSO at 3 mM. To investigate the stability of the test compounds in plasma, samples were made by diluting test compounds into plasma from the stock solutions to obtain a test compound concentration of 3 μM (0.1% DMSO). Before addition of a test compound, 990 μl of plasma were preincubated at 37° C. for 5 min in eppendorf. After addition of a test compound, 70 μl for each time point were transferred to a 96-deepwell plate, previously warmed at 37° C. in a DUBNOFF water bath. Each compound was tested at five time points, in duplicate (10, 20, 30, 40 and 60 min). At each time point, an aliquot of 50 μl was taken and transferred to a new 96-deepwell plate, and the reaction was stopped with 200 μl of 100% acetonitrile containing 0.1% formic acid and the appropriate internal standard. Then samples were centrifuged at 1100×g for 30 min at +4° C. and supernatants were transferred to a new 96-deepwell plate. Samples were evaporated under N2 and reconstituted in H2O/ACN 0.1% Formic Acid (98:2). Analysis was performed without a calibration curve (Acquity UPLC-Waters; SciexAPI4000). Time 0 was obtained by adding acetonitrile before addition of the test compound.

[2] = system: PANK2 silenced human neuroblastoma IMR32 cells (PANK2−/−); assay: Coenzyme A assay in PANK2 silenced cells (LC-MS quantification of free CoA); type: cell-based; settings: compound added twice (24 h + 24 h), relative to 0.1% DMSO controls
How it was run: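 Free intracellular CoA was measured by positive-mode LC-MS/MS of 20% TFA extracts, taking 2 μl per 10^6 cells as intracellular volume. Cells were IMR32 with stable lentiviral PANK2 knockdown, dosed twice 24 h apart (48 h total, 0.1% DMSO). Output is fold increase over vehicle.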

[3] = Stability in human plasma; type: in vitro ADME; settings: 37° C.; for t1/2, Human Plasma, Diastereoisomer B: 3 μM
Method: as §1

[4] = human, plasma, Diastereoisomer A (upfield shift in 31P NMR), read-out: t1/2, Human Plasma, Diastereoisomer A (converted)
[5] = human, plasma, Diastereoisomer B, read-out: t1/2, Human Plasma, Diastereoisomer B (converted)
[6] = Diastereoisomer A (upfield shift in 31P NMR), 3 μM, 37° C., mouse plasma, read-out: t1/2, Mouse Plasma, Diastereoisomer A
[7] = Diastereoisomer A (upfield shift in 31P NMR), read-out: t1/2, Human Plasma, Diastereoisomer A (converted)
[8] = Diastereoisomer B, 3 μM, 37° C., mouse plasma

| SMILES | half-life at 3 µM ([1]; mouse, plasma) | t1/2, Mouse Plasma, Diastereoisomer B ([1]; mouse, plasma, 3 µM) | half-life at 3 µM [3, 4] | half-life at 3 µM [3, 5] | PANK2−/− CoA (Fold Increase): fold increase in Coenzyme A (CoA) levels relative to controls [2] | half-life at 3 µM [1, 6] | half-life at 3 µM [3, 7] | t1/2, Mouse Plasma, Diastereoisomer B [1, 8] | t1/2, Human Plasma, Diastereoisomer B ([3]; Diastereoisomer B) |
| --- | --- | --- | --- | --- | --- | --- | --- | --- | --- |
| CC(C)(C)C(=O)OCO[P@@]1(=O)OCC(C)(C)[C@H](C(=O)NCCC(=O)OCc2cncs2)O1 (single isomer, unassigned) [Compound No. 79] | < 9.6 min | <9.6 min | > 60 min | < 9.6 min | 133.6 Fold Increase | – | – | – | – |
| COC(=O)CCNC(=O)[C@@H]1OP(=O)(OCOC(=O)OC(C)(C)C)OCC1(C)C (stereo partly drawn) [compound 88, methyl 3-((4R)-2-(((tert-butoxycarbonyl)oxy)methoxy)-5,5-dimethyl-2-oxido-1,3,2-dioxaphosphinane-4-carboxamido)propanoate] | < 9.6 min | <9.6 min | 42.6 min | 21.6 min | 2.66 Fold Increase | – | – | – | – |
| CC(C)(C)C(=O)OCO[P@@]1(=O)OCC(C)(C)[C@H](C(=O)NCCC(=O)OCCc2ccccn2)O1 (single isomer, unassigned) [Compound No. 82] | < 9.6 min | – | 28.8 min | – | 99.82 Fold Increase | – | – | – | – |
| COC(=O)CCNC(=O)[C@@H]1OP(=O)(OCOC(=O)c2ccncc2)OCC1(C)C (stereo partly drawn) [Compound No. 72, (((4R)-4-((3-methoxy-3-oxopropyl)carbamoyl)-5,5-dimethyl-2-oxido-1,3,2-dioxaphosphinan-2-yl)oxy)methyl isonicotinate] | < 9.6 min | <9.6 min | < 9.6 min | < 9.6 min | 34.64 Fold Increase | – | – | – | – |
| Cc1cc(COC(=O)CCNC(=O)[C@@H]2OP(=O)(OCOC(=O)C(C)(C)C)OCC2(C)C)no1 (single isomer, unassigned) [Compound No. 74] | < 9.6 min | <9.6 min | 46.8 min | < 9.6 min | 176 Fold Increase | – | – | – | – |
| COC(=O)CCNC(=O)[C@@H]1OP(=O)(NCc2ccncc2)OCC1(C)C (stereo partly drawn) [compound 125, methyl 3-((4R)-5,5-dimethyl-2-oxido-2-((pyridin-4-ylmethyl)amino)-1,3,2-dioxaphosphinane-4-carboxamido)propanoate] | – | – | – | – | 1.99 Fold Increase | < 9.6 min | > 60 min | – | – |
| COC(=O)CCNC(=O)[C@@H]1OP(=O)(NCCc2ccc(F)cc2)OCC1(C)C (stereo partly drawn) [compound 129, methyl 3-((4R)-2-((4-fluorophenethyl)amino)-5,5-dimethyl-2-oxido-1,3,2-dioxaphosphinane-4-carboxamido)propanoate] | – | – | – | – | 0.9 Fold Increase | < 9.6 min | > 60 min | <9.6 min | >1 h |
| COC(=O)CCNC(=O)[C@@H]1OP(=O)(OCOC(=O)OCc2cccnc2)OCC1(C)C (stereo partly drawn) [Compound No. 97, Methyl 3-((4R)-5,5-dimethyl-2-oxido-2-((((pyridin-3-ylmethoxy)carbonyl)oxy)methoxy)-1,3,2-dioxaphosphinane-4-carboxamido)propanoate] | < 9.6 min | – | < 9.6 min | – | 77.04 Fold Increase | – | – | – | – |
| CC(C)(C)OC(=O)CCNC(=O)[C@@H]1OP(=O)(OCOC(=O)C(C)(C)C)OCC1(C)C (stereo partly drawn) [Compound No. 75, (((4R)-4-((3-(tert-butoxy)-3-oxopropyl)carbamoyl)-5,5-dimethyl-2-oxido-1,3,2-dioxaphosphinan-2-yl)oxy)methyl pivalate] | < 9.6 min | <9.6 min | > 60 min | < 9.6 min | 1.52 Fold Increase | – | – | – | – |
| CC(C)(C)C(=O)OCOP1(=O)OCC(C)(C)[C@H](C(=O)NCCC(=O)OCc2ncccn2)O1 (stereo partly drawn) [Compound No. 95, (((4R)-5,5-dimethyl-2-oxido-4-((3-oxo-3-(pyrimidin-2-ylmethoxy)propyl)carbamoyl)-1,3,2-dioxaphosphinan-2-yl)oxy)methyl pivalate] | < 9.6 min | <9.6 min | > 60 min | < 9.6 min | 54.03 Fold Increase | – | – | – | – |
| COC(=O)CCNC(=O)[C@@H]1OP(=O)(NCCN2CCOCC2)OCC1(C)C (stereo partly drawn) [compound 126, methyl 3-((4R)-5,5-dimethyl-2-((2-morpholinoethyl)amino)-2-oxido-1,3,2-dioxaphosphinane-4-carboxamido)propanoate] | – | – | – | – | 1.33 Fold Increase | < 9.6 min | > 60 min | <9.6 min | >1 h |
| CCOCCCOC(=O)CCNC(=O)[C@@H]1O[P@@](=O)(OCOC(=O)C(C)(C)C)OCC1(C)C (single isomer, unassigned) [Compound No. 96] | < 9.6 min | – | 16.8 min | – | 29.43 Fold Increase | – | – | – | – |

Continued, in another order:

| half-life at 3 µM ([1]; mouse, plasma) | t1/2, Mouse Plasma, Diastereoisomer B ([1]; mouse, plasma, 3 µM) | half-life at 3 µM [3, 4] | half-life at 3 µM [3, 5] | SMILES | PANK2−/− CoA (Fold Increase): fold increase in Coenzyme A (CoA) levels relative to controls [2] | half-life at 3 µM [1, 6] | half-life at 3 µM [3, 7] | t1/2, Mouse Plasma, Diastereoisomer B [1, 8] | t1/2, Human Plasma, Diastereoisomer B ([3]; Diastereoisomer B) |
| --- | --- | --- | --- | --- | --- | --- | --- | --- | --- |
| < 9.6 min | <9.6 min | > 60 min | > 60 min | C[C@H](NP1(=O)OCC(C)(C)[C@H](C(=O)NCCC(=O)OCc2cnccn2)O1)C(=O)OCCc1ccccc1 (stereo partly drawn) [compound 39, phenethyl ((4R)-5,5-dimethyl-2-oxido-4-((3-oxo-3-(pyrazin-2-ylmethoxy)propyl)carbamoyl)-1,3,2-dioxaphosphinan-2-yl)-L-alaninate] | 2.18 Fold Increase | – | – | – | – |
| < 9.6 min | – | > 60 min | – | COC(=O)CCNC(=O)[C@@H]1OP(=O)(N[C@H](C)C(=O)OCc2cnccn2)OCC1(C)C (stereo in doubt) [compound 42, methyl 3-((2S,4R)-5,5-dimethyl-2-oxido-2-(((R)-1-oxo-1-(pyrazin-2-ylmethoxy)propan-2-yl)amino)-1,3,2-dioxaphosphinane-4-carboxamido)propanoate] | 2.42 Fold Increase | – | – | – | – |
| < 9.6 min | <9.6 min | > 60 min | > 60 min | C[C@H](NP1(=O)OCC(C)(C)[C@H](C(=O)NCCC(=O)OC(C)(C)C)O1)C(=O)OCCc1ccccc1 (stereo partly drawn) [compound 33, tert-butyl 3-((4R)-5,5-dimethyl-2-oxido-2-(((S)-1-oxo-1-phenethoxypropan-2-yl)amino)-1,3,2-dioxaphosphinane-4-carboxamido)propanoate] | 0.8 Fold Increase | – | – | – | – |
| < 9.6 min | <9.6 min | > 60 min | > 60 min | COC(=O)CCNC(=O)[C@@H]1OP(=O)(N[C@@H](C)C(=O)OCCc2scnc2C)OCC1(C)C (stereo partly drawn) [compound 31, methyl 3-((4R)-5,5-dimethyl-2-(((S)-1-(2-(4-methylthiazol-5-yl)ethoxy)-1-oxopropan-2-yl)amino)-2-oxido-1,3,2-dioxaphosphinane-4-carboxamido)propanoate] | 1.1 Fold Increase | – | – | – | – |
| < 9.6 min | <9.6 min | < 9.6 min | < 9.6 min | COC(=O)CCNC(=O)[C@@H]1OP(=O)(OCOC(=O)c2cnccn2)OCC1(C)C (stereo partly drawn) [compound 86, (((4R)-4-((3-methoxy-3-oxopropyl)carbamoyl)-5,5-dimethyl-2-oxido-1,3,2-dioxaphosphinan-2-yl)oxy)methyl pyrazine-2-carboxylate] | 2.45 Fold Increase | – | – | – | – |
| < 9.6 min | <9.6 min | > 60 min | 39 min | COC(=O)CCNC(=O)[C@@H]1OP(=O)(N[C@H](C)C(=O)OCc2cccnc2)OCC1(C)C (stereo partly drawn) [compound 28, methyl 3-((4R)-5,5-dimethyl-2-oxido-2-(((R)-1-oxo-1-(pyridin-3-ylmethoxy)propan-2-yl)amino)-1,3,2-dioxaphosphinane-4-carboxamido)propanoate] | 0.87 Fold Increase | – | – | – | – |
